The results in this text go back to US20260184710A1, “CASITAS B-LINEAGE LYMPHOMA PROTOONCOGENE B (CBL-B) DEGRADING COMPOUNDS AND ASSOCIATED METHODS OF USE” (Arvinas Operations, Inc., priority 2022, published 2026).

Assay [1] addresses T1, Cbl-b (Homo sapiens, UniProt Q13191).
T1 construct: Cbl-b-HiBit KI Jurkat Cells were purchased from Promega; host or cells: Cbl-b-HiBiT knock-in Jurkat cells
The assay is described as follows: Cbl-b Degradation Method A (FACS, anti-Cbl-b antibody staining). It is filed as cell-based. The following applies: for DC50: half maximal degradation, read-out: Cbl-b Degredation Method A IC50; for Dmax: Jurkat, read-out: Cbl-b Degredation Method A Dmax (%). The essentials: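 Cbl-b-HiBit KI Jurkat cells treated with compound for at least 20 h at 37 °C, then fixed, permeabilized and stained with anti-Cbl-b antibody plus anti-rabbit AF488 secondary. Cbl-b levels read by FACS; DC50 and Dmax (percent of control) derived.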

Assay [2] has as its target T1, Cbl-b. The assay is described as follows: Cbl-b Degradation Method B (Nano-Glo HiBiT lytic detection). In kind it is cell-based. The conditions noted are these: Cbl-b-HiBit KI Jurkat Cells, incubated at least 6-24 hours; for DC50: half maximal degradation, read-out: Cbl-b Degredation Method B IC50; for Dmax: read-out: Cbl-b Degredation Method B Dmax (%). The essentials: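 Cbl-b-HiBiT knock-in Jurkat cells (20,000/well) were treated after ~24 h plating with an 11-point 1:3 series for 6-24 h at 37° C. Remaining Cbl-b measured by Nano-Glo HiBiT lytic luminescence. DC50 and Dmax expressed as % of control.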
(In general: HiBiT is a short tag that completes a luciferase, so light tracks the accessible tagged protein.)

The mark [3] stands for this setting: Cbl-b-HiBit KI Jurkat Cells, incubated at least 20 hours.
Setting [4] is: Cbl-b-HiBit KI Jurkat Cells, incubated at least 20 hours, maximum degradation observed.

T1 sequence (Q13191 whole entry): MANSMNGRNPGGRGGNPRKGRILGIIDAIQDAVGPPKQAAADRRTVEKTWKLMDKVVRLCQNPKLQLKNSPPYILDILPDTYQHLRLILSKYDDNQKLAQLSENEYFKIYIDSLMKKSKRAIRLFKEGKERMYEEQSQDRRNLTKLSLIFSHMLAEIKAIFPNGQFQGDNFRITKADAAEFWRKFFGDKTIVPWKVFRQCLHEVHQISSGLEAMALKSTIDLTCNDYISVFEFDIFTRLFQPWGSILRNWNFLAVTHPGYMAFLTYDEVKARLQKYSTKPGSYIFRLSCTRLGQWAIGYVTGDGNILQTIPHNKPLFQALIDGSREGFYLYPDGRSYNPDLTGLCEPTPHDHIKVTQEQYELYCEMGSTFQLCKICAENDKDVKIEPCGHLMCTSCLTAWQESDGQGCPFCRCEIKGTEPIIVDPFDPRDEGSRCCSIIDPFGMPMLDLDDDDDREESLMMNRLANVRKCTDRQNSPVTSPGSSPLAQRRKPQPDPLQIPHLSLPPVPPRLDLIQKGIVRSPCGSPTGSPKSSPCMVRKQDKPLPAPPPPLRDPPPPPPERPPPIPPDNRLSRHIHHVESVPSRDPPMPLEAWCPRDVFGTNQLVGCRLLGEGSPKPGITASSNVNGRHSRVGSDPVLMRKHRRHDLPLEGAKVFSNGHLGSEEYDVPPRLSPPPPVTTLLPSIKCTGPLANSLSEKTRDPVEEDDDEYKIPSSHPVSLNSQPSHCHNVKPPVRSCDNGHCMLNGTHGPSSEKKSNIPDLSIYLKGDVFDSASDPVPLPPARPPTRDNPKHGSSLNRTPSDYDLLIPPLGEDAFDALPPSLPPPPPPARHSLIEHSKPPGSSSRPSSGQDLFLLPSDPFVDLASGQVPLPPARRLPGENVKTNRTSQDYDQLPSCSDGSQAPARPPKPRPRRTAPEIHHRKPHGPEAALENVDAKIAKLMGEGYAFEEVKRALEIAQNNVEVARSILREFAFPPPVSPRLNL

Turning to `CC1CC(N2CCC(COCCOc3ccc4c(c3)C(=O)N(C3CCC(=O)NC3=O)C4=O)CC2)CN(Cc2cc3c(c(C(F)(F)F)c2)CN(c2cccc(C4(Cc5nncn5C)COC4)c2)C3=O)C1` (stereo not shown) [Example 102, 2-(2,6-dioxopiperidin-3-yl)-5-{2-[(5′-methyl-1′-{[2-(3-{3-[(4-methyl-4H-1,2,4-triazol-3-yl)methyl]oxetan-3-yl}phenyl)-3-oxo-7-(trifluoromethyl)-2,3-dihydro-1H-isoindol-5-yl]methyl}-[1,3′-bipiperidin]-4-yl)methoxy]ethoxy}-2,3-dihydro-1H-isoindole-1,3-dione], the DC50 at Cbl-b [1] (setting [3]) and on Cbl-b [2] was greater than 0.5 µM throughout.

Usually Dmax stands for the greatest extent of degradation seen. Turning to `CC1c2nc(N3CCC(O[C@H]4CC[C@H](CN5CCN(Cc6cc7c(c(C(F)(F)F)c6)CN(c6cccc(C8(Cc9nncn9C)CC8)c6)C7=O)CC5)CC4)CC3)ccc2C(=O)N1C1CCC(=O)NC1=O` (mixture of isomers) [Example 234, rac-3-[7-methyl-5-oxo-2-(4-{[(1r,4r)-4-[(4-{[2-(3-{1-[(4-methyl-4H-1,2,4-triazol-3-yl)methyl]cyclopropyl}phenyl)-3-oxo-7-(trifluoromethyl)-2,3-dihydro-1H-isoindol-5-yl]methyl}piperazin-1-yl)methyl]cyclohexyl]oxy}piperidin-1-yl)-5H,6H,7H-pyrrolo[3,4-b]pyridin-6-yl]piperidine-2,6-dione], the results for the DC50 at Cbl-b [1] (setting [3]) and at Cbl-b [2] were 0.005 to 0.05 µM and less than 0.005 µM, respectively. Also, the Dmax at Cbl-b [1] (setting [4]) and on Cbl-b [2] (maximum degradation observed) was 35 to 70% each time.

In the case of `CC1CC(CN2CC3(CCN(c4ccc5c(c4)C(=O)N(C4CCC(=O)NC4=O)C5=O)CC3)C2)CN(Cc2cc3c(c(C(F)(F)F)c2)CN(c2cccc(C4(Cc5nncn5C)COC4)c2)C3=O)C1` (stereo not shown) [Example 92, 2-(2,6-dioxopiperidin-3-yl)-5-{2-[(5-methyl-1-{[2-(3-{3-[(4-methyl-4H-1,2,4-triazol-3-yl)methyl]oxetan-3-yl}phenyl)-3-oxo-7-(trifluoromethyl)-2,3-dihydro-1H-isoindol-5-yl]methyl}piperidin-3-yl)methyl]-2,7-diazaspiro[3.5]nonan-7-yl}-2,3-dihydro-1H-isoindole-1,3-dione], the DC50 on Cbl-b [1] (setting [3]) and on Cbl-b [2] was greater than 0.5 µM each time.

For the molecule `Cn1cnnc1CC1(c2cccc(N3Cc4c(cc(CN5CCC(CN6CCC7(CC6)CCN(c6ccc8c(c6)C(=O)N(C6CCC(=O)NC6=O)C8=O)CC7)CC5)cc4C(F)(F)F)C3=O)c2)COC1` (stereo not shown) [Example 29, 2-(2,6-dioxopiperidin-3-yl)-5-{9-[(1-{[2-(3-{3-[(4-methyl-4H-1,2,4-triazol-3-yl)methyl]oxetan-3-yl}phenyl)-3-oxo-7-(trifluoromethyl)-2,3-dihydro-1H-isoindol-5-yl]methyl}piperidin-4-yl)methyl]-3,9-diazaspiro[5.5]undecan-3-yl}-2,3-dihydro-1H-isoindole-1,3-dione], the DC50 on Cbl-b [1] (setting [3]) and at Cbl-b [2] was greater than 0.5 µM throughout.

Take `Cn1cnnc1CC1(c2cccc(N3Cc4c(cc(CN5CCC[C@H](CN6CCC(C7CCN(c8ccc9c(c8)C(=O)N(C8CCC(=O)NC8=O)C9=O)CC7)CC6)C5)cc4C(F)(F)F)C3=O)c2)COC1` (stereo partly drawn) [Example 96, 2-(2,6-dioxopiperidin-3-yl)-5-(1′-{[(3R)-1-{[2-(3-{3-[(4-methyl-4H-1,2,4-triazol-3-yl)methyl]oxetan-3-yl}phenyl)-3-oxo-7-(trifluoromethyl)-2,3-dihydro-1H-isoindol-5-yl]methyl}piperidin-3-yl]methyl}-[4,4′-bipiperidin]-1-yl)-2,3-dihydro-1H-isoindole-1,3-dione]: the DC50 on Cbl-b [1] (setting [3]) and at Cbl-b [2] was greater than 0.5 µM throughout.

Turning to `Cn1cnnc1CC1(c2cccc(N3Cc4c(cc(N5CCC(C6CN(c7ccc8c(c7)C(=O)N(C7CCC(=O)NC7=O)C8=O)C6)CC5)cc4C(F)(F)F)C3=O)c2)COC1` (stereo not shown) [Example 128, 2-(2,6-dioxopiperidin-3-yl)-5-(3-{1-[2-(3-{3-[(4-methyl-4H-1,2,4-triazol-3-yl)methyl]oxetan-3-yl}phenyl)-3-oxo-7-(trifluoromethyl)-2,3-dihydro-1H-isoindol-5-yl]piperidin-4-yl}azetidin-1-yl)-2,3-dihydro-1H-isoindole-1,3-dione], the DC50 at Cbl-b [1] (setting [3]) and at Cbl-b [2] was greater than 0.5 µM each time.

In the case of `CC1c2nc(N3CCC(CN4CCN(CC5CCN(Cc6cc7c(c(C(F)(F)F)c6)CN(c6cccc([C@]8(Cc9nncn9C)C[C@@H](C#N)C8)c6)C7=O)C(C)(C)C5)CC4)CC3)ccc2C(=O)N1C1CCC(=O)NC1=O` (stereo partly shown) [Example 277, (1r, 3r)-3-(3-{6-[(4-{[4-({1-[6-(2,6-dioxopiperidin-3-yl)-7-methyl-5-oxo-5H, 6H, 7H-pyrrolo [3,4-b]pyridin-2-yl]piperidin-4-yl}methyl)piperazin-1-yl]methyl}-2,2-dimethylpiperidin-1-yl)methyl]-1-oxo-4-(trifluoromethyl)-2,3-dihydro-1H-isoindol-2-yl}phenyl)-3-[(4-methyl-4H-1,2,4-triazol-3-yl)methyl]cyclobutane-1-carbonitrile], the DC50 at Cbl-b [1] (setting [3]) was 0.005 to 0.05 µM; on Cbl-b [2], less than 0.005 µM. Also, the Dmax at Cbl-b [1] was less than 35%. Also, on Cbl-b [2] (maximum degradation observed), the “Cbl-b Degredation Method B Dmax (%)” value is “C (C ≤ 35)”.

In the case of `Cn1cnnc1CC1(c2cccc(N3Cc4c(cc(CN5CCC[C@H](CN6CCN(C[C@H]7CC[C@H](OC8CCN(c9ccc%10c(c9F)CN(C9CCC(=O)NC9=O)C%10=O)CC8)CC7)CC6(C)C)C5)cc4C(F)(F)F)C3=O)c2)COC1` (stereo partly drawn) [Example 148, 3-[5-[4-[4-[[3,3-dimethyl-4-[[(3S)-1-[[2-[3-[3-[(4-methyl-1,2,4-triazol-3-yl)methyl]oxetan-3-yl]phenyl]-3-oxo-7-(trifluoromethyl)isoindolin-5-yl]methyl]-3-piperidyl]methyl]piperazin-1-yl]methyl]cyclohexoxy]-1-piperidyl]-4-fluoro-1-oxo-isoindolin-2-yl]piperidine-2,6-dione], the DC50 on Cbl-b [1] (setting [3]) and at Cbl-b [2] was less than 0.005 µM in each case. Besides, the Dmax at Cbl-b [1] and on Cbl-b [2] (maximum degradation observed) was greater than 70% throughout.

In the case of `Cn1cnnc1CC1(c2cccc(N3Cc4c(cc(N5CC6(CCN(CC7CCN(c8ccc9c(c8Cl)CN(C8CCC(=O)NC8=O)C9=O)CC7)CC6)C5)cc4C(F)(F)F)C3=O)c2)COC1` (stereo not shown) [Example 4, 3-{4-chloro-5-[4-({2-[2-(3-{3-[(4-methyl-4H-1,2,4-triazol-3-yl)methyl]oxetan-3-yl}phenyl)-3-oxo-7-(trifluoromethyl)-2,3-dihydro-1H-isoindol-5-yl]-2,7-diazaspiro[3.5]nonan-7-yl}methyl)piperidin-1-yl]-1-oxo-2,3-dihydro-1H-isoindol-2-yl}piperidine-2,6-dione], the DC50 on Cbl-b [1] (setting [3]) and on Cbl-b [2] was less than 0.005 µM throughout. The Dmax on Cbl-b [1] (setting [4]) and at Cbl-b [2] (maximum degradation observed) was 35 to 70% throughout.

As to `Cn1cnnc1CC1(c2cccc(N3Cc4c(cc(CN5CCC(CN6CCC(COc7ccc8c(c7)C(=O)N(C7CCC(=O)NC7=O)C8=O)CC6)CC5)cc4C(F)(F)F)C3=O)c2)COC1` (stereo not shown) [Example 84, 2-(2,6-dioxopiperidin-3-yl)-5-({1-[(1-{[2-(3-{3-[(4-methyl-4H-1,2,4-triazol-3-yl)methyl]oxetan-3-yl}phenyl)-3-oxo-7-(trifluoromethyl)-2,3-dihydro-1H-isoindol-5-yl]methyl}piperidin-4-yl)methyl]piperidin-4-yl}methoxy)-2,3-dihydro-1H-isoindole-1,3-dione], the DC50 on Cbl-b [1] (setting [3]) and on Cbl-b [2] was greater than 0.5 µM each time.

Turning to `COc1c(N2CCC(CN3CCC4(CC3)CN(c3cc5c(c(C(F)(F)F)c3)CN(c3cccc([C@]6(Cc7nncn7C)C[C@@H](C#N)C6)c3)C5=O)C4)CC2)ccc2c1CN(C1CCC(=O)NC1=O)C2=O` (stereo partly shown) [Example 174, (1r,3r)-3-(3-{6-[7-({1-[2-(2,6-dioxopiperidin-3-yl)-4-methoxy-1-oxo-2,3-dihydro-1H-isoindol-5-yl]piperidin-4-yl}methyl)-2,7-diazaspiro[3.5]nonan-2-yl]-1-oxo-4-(trifluoromethyl)-2,3-dihydro-1H-isoindol-2-yl}phenyl)-3-[(4-methyl-4H-1,2,4-triazol-3-yl)methyl]cyclobutane-1-carbonitrile], the results for the DC50 at Cbl-b [1] (setting [3]) and on Cbl-b [2] were 0.005 to 0.05 µM and less than 0.005 µM, respectively. Besides, the Dmax on Cbl-b [1] (setting [4]) and on Cbl-b [2] (maximum degradation observed) was greater than 70% each time.

With `C[C@@H]1C[C@@H](CN2CCN(c3ccc4c(c3)C(=O)N(C3CCC(=O)NC3=O)C4=O)CC2)CN(Cc2cc3c(c(C(F)(F)F)c2)CN(c2cccc(C4(Cc5nncn5C)COC4)c2)C3=O)C1` (stereo partly drawn) [Example 86, 2-(2,6-dioxopiperidin-3-yl)-5-(4-{[(3R,5R)-5-methyl-1-{[2-(3-{3-[(4-methyl-4H-1,2,4-triazol-3-yl)methyl]oxetan-3-yl}phenyl)-3-oxo-7-(trifluoromethyl)-2,3-dihydro-1H-isoindol-5-yl]methyl}piperidin-3-yl]methyl}piperazin-1-yl)-2,3-dihydro-1H-isoindole-1,3-dione], the DC50 at Cbl-b [1] (setting [3]) and on Cbl-b [2] was greater than 0.5 µM each time.
